Results on three compounds are retold here after PMC4623978, “Modulation of Closed−State Inactivation in Kv2.1/Kv6.4 Heterotetramers as Mechanism for 4−AP Induced Potentiation” (PLoS ONE, 2015).

One assay deals with T1, Kv2.1 homotetramer (Homo sapiens, UniProt Q14721).
T1 construct: gene KCNB1; full-length in eGFP-N1 vector, transiently expressed in mouse Ltk- cells; homotetramer
T1 sequence (Q14721 1-858): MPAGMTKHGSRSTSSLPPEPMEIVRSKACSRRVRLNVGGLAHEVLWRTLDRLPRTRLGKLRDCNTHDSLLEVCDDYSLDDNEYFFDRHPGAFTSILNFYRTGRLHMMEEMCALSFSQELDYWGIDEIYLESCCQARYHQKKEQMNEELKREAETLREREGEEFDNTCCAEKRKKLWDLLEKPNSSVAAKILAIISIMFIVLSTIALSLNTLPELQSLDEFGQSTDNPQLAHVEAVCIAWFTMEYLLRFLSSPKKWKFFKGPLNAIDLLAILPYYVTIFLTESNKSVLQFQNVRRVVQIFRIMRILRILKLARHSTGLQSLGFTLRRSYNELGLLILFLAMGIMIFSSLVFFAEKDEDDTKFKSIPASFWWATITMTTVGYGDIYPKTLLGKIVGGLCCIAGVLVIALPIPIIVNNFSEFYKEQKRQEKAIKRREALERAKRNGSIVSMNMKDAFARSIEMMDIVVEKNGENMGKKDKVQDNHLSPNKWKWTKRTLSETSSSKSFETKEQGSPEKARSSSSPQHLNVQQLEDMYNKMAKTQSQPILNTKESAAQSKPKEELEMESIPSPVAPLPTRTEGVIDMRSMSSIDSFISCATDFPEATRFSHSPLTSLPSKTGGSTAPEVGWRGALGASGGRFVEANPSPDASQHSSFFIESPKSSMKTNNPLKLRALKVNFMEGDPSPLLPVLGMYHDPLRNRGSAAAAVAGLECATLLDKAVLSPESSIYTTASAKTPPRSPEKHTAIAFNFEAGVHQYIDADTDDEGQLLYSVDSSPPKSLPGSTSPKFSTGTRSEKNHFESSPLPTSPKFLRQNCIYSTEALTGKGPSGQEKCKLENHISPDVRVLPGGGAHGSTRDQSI
Nature of the assay: whole-cell patch clamp, Hill fit of current at +[…] mV. The format is cell-based. (The patch-clamp technique gives a direct electrical read-out from membranes.)

Assay [1] concerns the target T2, Kv2.1/Kv6.4 heterotetramer (Homo sapiens, UniProt Q14721+Q8TDN1).
T2 construct: gene KCNB1; co-transfected in mouse Ltk- cells, KvS:Kv2.1 10:1 cDNA; formerly named Kv6.3
T2 sequence (Q14721 1-858): T1 sequence (Q14721 1-858)
T2 sequence (Q8TDN1 1-519): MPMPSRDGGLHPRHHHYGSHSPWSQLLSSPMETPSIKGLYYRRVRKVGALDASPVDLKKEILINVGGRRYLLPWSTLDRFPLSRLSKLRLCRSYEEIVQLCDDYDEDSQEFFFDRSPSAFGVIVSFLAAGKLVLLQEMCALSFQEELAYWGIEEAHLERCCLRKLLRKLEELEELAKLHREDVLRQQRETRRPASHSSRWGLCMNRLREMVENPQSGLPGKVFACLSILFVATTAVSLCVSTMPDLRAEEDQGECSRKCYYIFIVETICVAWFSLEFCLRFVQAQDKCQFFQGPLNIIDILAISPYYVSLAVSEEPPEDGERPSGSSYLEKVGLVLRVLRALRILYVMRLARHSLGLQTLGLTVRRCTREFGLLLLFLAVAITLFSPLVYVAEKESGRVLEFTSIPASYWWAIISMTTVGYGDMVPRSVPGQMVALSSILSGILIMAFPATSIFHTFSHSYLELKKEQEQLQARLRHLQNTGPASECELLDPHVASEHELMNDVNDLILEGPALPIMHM
The assay is described as above. The format is cell-based.

For a further assay, the system named is T3, Kv2.1/Kv6.4_S6c_Kv9.3.
T3 construct: gene KCNB1
The experiment in a line: whole-cell patch clamp, current block. The format is cell-based, Homo sapiens (Kv2.1, Kv6.4); Mus musculus (Kv9.3 S6c). To be noted: pH 7.35 outside, 20-23 °C.

Assay [2] addresses T4, Kv2.1/Kv5.1 heterotetramer (Homo sapiens, UniProt Q14721+Q9H3M0).
T4 construct: gene KCNB1; co-transfected in mouse Ltk- cells, KvS:Kv2.1 10:1 cDNA
T4 sequence (Q14721 1-858): T1 sequence (Q14721 1-858)
T4 sequence (Q9H3M0 1-494): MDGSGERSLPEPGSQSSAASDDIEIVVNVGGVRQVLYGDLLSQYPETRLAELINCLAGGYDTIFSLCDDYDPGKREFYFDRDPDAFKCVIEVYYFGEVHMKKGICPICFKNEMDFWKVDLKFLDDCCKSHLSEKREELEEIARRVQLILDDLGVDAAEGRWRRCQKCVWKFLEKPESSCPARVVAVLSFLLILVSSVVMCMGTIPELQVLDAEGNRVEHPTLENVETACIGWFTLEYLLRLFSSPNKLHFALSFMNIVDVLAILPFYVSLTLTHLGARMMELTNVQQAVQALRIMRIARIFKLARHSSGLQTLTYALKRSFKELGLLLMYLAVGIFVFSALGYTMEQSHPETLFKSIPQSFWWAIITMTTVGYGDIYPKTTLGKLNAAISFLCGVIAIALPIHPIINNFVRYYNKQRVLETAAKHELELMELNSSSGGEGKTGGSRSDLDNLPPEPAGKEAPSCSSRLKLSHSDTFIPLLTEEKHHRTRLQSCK
Nature of the assay: whole-cell patch clamp, current block. The format is cell-based. To be noted: pH 7.35 outside, 20-23 °C.

As to `O=C(NCC1CCCCN1)c1cc(OCC(F)(F)F)ccc1OCC(F)(F)F` (stereo not drawn) [flecainide], the results for the IC50 (on Kv2.1 homotetramer; in assay [1]) were 7.4 ± 0.8 µM and 2 ± 0.1 µM, respectively.

On to `C=C[C@H]1C[N@@]2CC[C@H]1C[C@@H]2[C@@H](O)c1ccnc2ccc(OC)cc12` [quinidine], for which the values for the IC50 (against Kv2.1 homotetramer; in assay [1]) were 7.2 ± 0.8 µM and 3 ± 0.1 µM, respectively.

In the case of `Nc1ccncc1` [4-aminopyridine], the “% inhibition at 18 mM” value in the assay with Kv2.1/Kv6.4_S6c_Kv9.3 is given as 12 ± 3%; in assay [2], 10 ± 2%.

As a reminder, the IC50 is the concentration that inhibits the measured activity by half. The low end stands for greater potency in that assay, the high end for weaker potency in that assay. For orientation: % inhibition means the change of the read-out against control, counted positive when it falls.
